Results reported in article PMC11685430 (Nature Communications, 2024).

Key:
[1] = tested on: spinal dorsal horn outer lamina II (IIo) neurons; assay: Patch clamp recording of sEPSCs in spinal cord slices of naive mice; assay type: cell-based, mouse; conditions: DPCPX alone 1 μM
[2] = tested on: adenosine receptor subtypes (A1R, A2AR, A2BR, A3R); assay type: in vivo, mouse; conditions: i.t. 10 nmol
[3] = tested on: A1R; assay: Reversal of JH-ENT-01 analgesia by A1R antagonist in STZ-treated mice; assay type: in vivo, mouse; conditions: i.t. 10 nmol, 30 min prior to JH-ENT-01 10 nmol
[4] = Plasma and tissue pharmacokinetics after subcutaneous administration; assay type: in vivo; conditions: male, CD-1, mouse, plasma, sc
[5] = tested on: mice; assay: Rotarod test before and 60 min after i.t. delivery; assay type: in vivo, mouse; conditions: 60 min after i.t. 100 nmol
[6] = tested on: mice, CFA-induced inflammatory pain; assay: CFA-induced persistent inflammatory pain, von Frey test; assay type: in vivo, mouse; conditions: i.v., 10 mg/ml as printed; days 1, 3, 5 after CFA
[7] = tested on: mice with STZ-induced diabetic neuropathy; assay: STZ-induced diabetic neuropathy, mechanical pain; assay type: in vivo, mouse
[8] = tested on: mice with STZ-induced diabetic neuropathy; assay: Survival of STZ mice after repeated injections; assay type: in vivo, mouse
[9] = tested on: mice, formalin-induced inflammatory pain; assay: Formalin-induced acute inflammatory pain; assay type: in vivo, mouse; conditions: i.t., JH-ENT-01 1, 10, 100 nmol, dilazep 100 nmol
[10] = tested on: mice; assay: Electrocardiogram; assay type: in vivo, mouse
[11] = molecular target: T1, G154S hENT1 (Homo sapiens, UniProt Q99808, G154S); assay: [3H]-adenosine uptake in oocytes expressing G154S hENT1; assay type: cell-based; conditions: Fig 1g
T1 sequence (Q99808 1-456 G154S): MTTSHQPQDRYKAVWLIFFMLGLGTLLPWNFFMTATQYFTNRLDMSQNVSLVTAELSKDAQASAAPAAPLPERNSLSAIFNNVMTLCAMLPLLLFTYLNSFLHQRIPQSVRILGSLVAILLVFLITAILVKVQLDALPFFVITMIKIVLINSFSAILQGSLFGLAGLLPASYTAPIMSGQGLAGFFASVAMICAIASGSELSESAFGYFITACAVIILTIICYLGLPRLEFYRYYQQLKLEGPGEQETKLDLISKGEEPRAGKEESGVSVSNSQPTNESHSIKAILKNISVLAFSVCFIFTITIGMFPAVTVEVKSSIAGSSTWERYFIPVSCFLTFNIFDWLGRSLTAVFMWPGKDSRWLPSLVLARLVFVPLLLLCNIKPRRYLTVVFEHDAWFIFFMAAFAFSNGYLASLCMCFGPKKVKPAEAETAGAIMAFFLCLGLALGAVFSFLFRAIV

Row | Compound | sEPSC frequency and amplitude [1] | reversal of JH-ENT-01 analgesia [2] | effect on analgesic action of JH-ENT-01 (PWT) [3] | Cmax [4] | motor function in rotarod test [5] | paw withdrawal frequency (PWF) [6] | paw withdrawal threshold (PWT) [6] | paw withdrawal threshold (PWT) ([7]; i.t. 10 nmol) | paw withdrawal threshold (PWT) ([7]; i.v. 30 mg/kg on days 8, 10, 12 after STZ) | neuropathic pain in the STZ model ([7]; s.c. 3 x 30 mg/kg) | death / survival of mice ([8]; i.v. 30 mg/kg, 3 injections) | survival of mice ([8]; s.c. 3 x 30 mg/kg) | formalin-induced 2nd phase pain [9] | formalin-induced phase 1 pain ([9]; both sexes) | effect on heart rates ([10]; i.p. 10 mg/kg and 30 mg/kg) | effect on heart rates ([10]; i.v. 30 mg/kg, first hour) | preferential inhibition of wild type hENT1 over G154S [11]
1 | CCCn1c(=O)c2[nH]c(C3CCCC3)nc2n(CCC)c1=O [DPCPX] | no effects on sEPSC frequency and amplitude | reversal | prevented |  |  |  |  |  |  |  |  |  |  |  |  |  | 
2 | COc1cc(C(=O)OCCCN2CCCN(CCCOC(=O)c3cc(OC)c(OC)c(OC)c3)CC2)cc(OC)c1OC [dilazep] |  |  |  | 409 ng/mL | no significant changes in the falling latency | no effects | no effects | failed to elicit an increase in PWT | did not observe any analgesic effect | no effects | 7 out of 16 | all mice survived | significant inhibition of phase 2 pain only when data from both sexes were combined | not affected | no significant decrease | significant decrease | did not show any preference
